Measured values reported in US9963433B2, “Anticancer drugs including the chemical structures of an androgen receptor ligand and a histone deacetylase inhibitor” (Wayne State University, priority 2016, dated 2018).
pIC50: −log10 of the molar value.

Legend:
[1] = system: AR chromatin association at KLK3 ARE enhancer elements; assay: ChIP of AR at KLK3 enhancer in C4-2 cells; details: compound 10 μM, R1881 1 nM or 10 nM, 2 h, FIG. 3C
Method: (3C) C4-2 cells plated in hormone-depleted medium were treated with either vehicle, R1881, or the indicated compound for 2 h. Cells were harvested and subjected to ChIP using AR antibody. Taqman probes targeting ARE enhancer elements associated with the KLK3 gene were used to quantify the immunoprecipitated chromatin.
Chromatin Immunoprecipitation (ChIP). […] The ChIP signals were measured by quantitative real time PCR analysis of the immunoprecipitated products.
As a target site for the ChIP assay, the well-established AR binding enhancer elements located 4 kb upstream of the transcription initiation site of the KLK3 gene was chosen.

human recombinant HDAC6 = target: T1, human recombinant HDAC6 (Homo sapiens, UniProt Q9UBN7); assay: HDAC6 fluorometric assay, recombinant enzyme; format: biochemical; details: for pIC50: cell-free, FIG. 2C, read-out: IC50, inhibition of recombinant HDAC6
T1 construct: purchased Enzo Life Sciences BML-AK516
T1 sequence (Q9UBN7 1-1215): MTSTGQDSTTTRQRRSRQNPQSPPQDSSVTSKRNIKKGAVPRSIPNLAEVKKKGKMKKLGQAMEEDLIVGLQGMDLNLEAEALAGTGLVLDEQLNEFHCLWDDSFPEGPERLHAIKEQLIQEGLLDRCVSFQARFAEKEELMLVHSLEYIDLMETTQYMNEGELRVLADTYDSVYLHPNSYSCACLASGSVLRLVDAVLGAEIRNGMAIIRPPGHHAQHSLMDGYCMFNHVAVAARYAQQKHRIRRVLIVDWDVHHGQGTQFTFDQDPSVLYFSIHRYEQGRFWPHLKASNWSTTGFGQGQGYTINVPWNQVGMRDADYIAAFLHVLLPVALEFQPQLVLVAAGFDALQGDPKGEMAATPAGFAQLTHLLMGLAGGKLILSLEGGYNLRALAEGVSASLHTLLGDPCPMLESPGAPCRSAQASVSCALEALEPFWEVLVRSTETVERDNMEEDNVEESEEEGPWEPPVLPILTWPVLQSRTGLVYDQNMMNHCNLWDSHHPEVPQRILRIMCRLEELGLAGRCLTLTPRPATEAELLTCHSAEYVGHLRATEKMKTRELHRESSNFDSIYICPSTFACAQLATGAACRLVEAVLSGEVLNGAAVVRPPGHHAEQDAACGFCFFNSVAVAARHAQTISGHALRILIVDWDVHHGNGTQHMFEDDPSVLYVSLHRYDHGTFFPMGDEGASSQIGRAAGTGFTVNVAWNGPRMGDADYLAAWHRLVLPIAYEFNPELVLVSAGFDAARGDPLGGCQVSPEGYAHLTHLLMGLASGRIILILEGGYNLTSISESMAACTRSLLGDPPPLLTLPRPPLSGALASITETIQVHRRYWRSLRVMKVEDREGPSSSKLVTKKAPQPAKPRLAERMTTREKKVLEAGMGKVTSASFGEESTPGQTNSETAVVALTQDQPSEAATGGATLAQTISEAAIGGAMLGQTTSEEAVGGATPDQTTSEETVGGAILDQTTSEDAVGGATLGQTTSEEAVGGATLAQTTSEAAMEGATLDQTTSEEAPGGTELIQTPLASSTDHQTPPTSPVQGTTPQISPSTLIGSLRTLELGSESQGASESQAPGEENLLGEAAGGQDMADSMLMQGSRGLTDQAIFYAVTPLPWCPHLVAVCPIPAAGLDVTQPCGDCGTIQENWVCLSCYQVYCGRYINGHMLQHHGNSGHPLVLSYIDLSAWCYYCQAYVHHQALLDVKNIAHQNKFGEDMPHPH
Method: FIGS. 2A-2F show measurement of intrinsic and in situ HDACi activities. […] IC50 values were calculated from nonlinear regression plots using GraphPad Prism5 software. […] Recombinant HDAC6 was incubated with each drug at the indicated concentrations. IC50 values were calculated from nonlinear regression plots using GraphPad Prism5 software.
HDAC activity assay. In vitro HDAC inhibition was measured by using the HDAC fluorimetric assay/drug discovery Kit (Enzo Life Sciences, BML-AK500) and the HDAC6 fluorometric drug discovery kit (Enzo Life Sciences, BML-AK516) following the manufacturer's protocols and instructions. IC50 values were calculated from nonlinear […] plots using GraphPad Prism5 software.
HDAC1 and HDAC2 are enriched in nuclear extracts whereas HDAC6 is a cytosolic enzyme that is the principal modulator of the acetylation status of Hsp90. […] Again, TSA served as the positive control in FIG. 2D.

AR = target: T2, AR (Homo sapiens, UniProt P10275, T878A); assay: Western blot of AR protein in C4-2 cells; format: cell-based; details: 1 μM to 10 μM, 24 h, relative to GAPDH, FIG. 4A
T2 construct: endogenous in cells; host or cells: C4-2 cells
T2 sequence (P10275 1-920 T878A): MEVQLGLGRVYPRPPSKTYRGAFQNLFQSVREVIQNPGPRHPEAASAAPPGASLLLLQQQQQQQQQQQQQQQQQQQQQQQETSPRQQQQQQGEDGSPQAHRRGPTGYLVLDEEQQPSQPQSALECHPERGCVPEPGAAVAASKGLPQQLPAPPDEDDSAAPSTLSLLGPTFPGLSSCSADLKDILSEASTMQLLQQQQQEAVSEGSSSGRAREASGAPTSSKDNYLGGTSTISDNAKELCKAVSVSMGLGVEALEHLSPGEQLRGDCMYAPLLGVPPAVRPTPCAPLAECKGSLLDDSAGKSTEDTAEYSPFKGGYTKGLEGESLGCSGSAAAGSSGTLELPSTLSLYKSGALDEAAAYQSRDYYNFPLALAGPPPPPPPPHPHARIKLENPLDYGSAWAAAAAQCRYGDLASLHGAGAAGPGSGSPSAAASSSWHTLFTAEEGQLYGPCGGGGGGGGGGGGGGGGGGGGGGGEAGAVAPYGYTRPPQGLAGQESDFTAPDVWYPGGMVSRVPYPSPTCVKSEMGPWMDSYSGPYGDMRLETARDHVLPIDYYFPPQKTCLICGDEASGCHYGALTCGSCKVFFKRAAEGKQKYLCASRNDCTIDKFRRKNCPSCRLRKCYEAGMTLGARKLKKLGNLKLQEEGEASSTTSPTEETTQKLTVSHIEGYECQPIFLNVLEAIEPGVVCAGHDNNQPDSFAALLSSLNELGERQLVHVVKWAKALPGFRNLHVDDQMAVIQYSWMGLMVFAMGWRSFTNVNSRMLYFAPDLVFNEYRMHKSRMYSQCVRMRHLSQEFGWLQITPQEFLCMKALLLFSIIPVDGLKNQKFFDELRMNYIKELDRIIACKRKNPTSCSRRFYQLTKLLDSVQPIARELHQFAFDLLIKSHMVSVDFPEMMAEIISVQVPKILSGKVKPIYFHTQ
Method: Cells were then harvested for western blot analysis using antibody to AR (4A), HSP90 (4B), Acetyl-Lysine (4C) or GAPDH (loading control). ImageJ software was used to determine the intensities of the bands relative to the vehicle control for each protein. The values were then divided by the values for GAPDH within the same samples.
Western Blot Analysis. Cells were washed once with phosphate buffered saline (PBS) and then lysed with RIPA buffer (150 mM NaCl, 1% Nonidet P-40, 0.5% sodium deoxycholate, 0.1% SDS, 50 mM Tris of pH 8.0) containing a protease inhibitor cocktail (Pierce, Thermo Fisher Scientific). The cell lysates were then incubated on ice for 40 minutes. Total protein concentrations were estimated using the Bradford Assay (Bio-Rad). Protein samples (10-40 ug) were heated at 95° C. for 5 minutes and resolved by electrophoresis on 8% polyacrylamide-SDS gels and electrophoretically transferred to PVDF membranes (Millipore, Billerica, Mass.). The membranes were then probed overnight at 4° C. with the appropriate primary antibody followed by the appropriate horseradish peroxidase-conjugated secondary antibody.

In the case of `CNC(=O)c1ccc(N2C(=S)N(c3ccc(C#N)c(C(F)(F)F)c3)C(=O)C2(C)C)cc1F` [Enz, Enzalutamide, reference compound], the “chromatin association of AR (ChIP signal)” value [1] was “basal ChIP signal” and the “inhibitory activity against HDAC6” value (human recombinant HDAC6; tested at 10 μM and 25 μM, FIG. 2D) was “did not show significant inhibitory activity”.

`CC1(C)C(=O)N(c2ccc(C#N)c(C(F)(F)F)c2)C(=S)N1c1ccc(C(=O)NCCCCCCC(=O)NO)c(F)c1` [Compound 2-75, 4-(3-(4-cyano-3-(trifluoromethyl)phenyl)-5,5-dimethyl-4-oxo-2-thioxoimidazolidin-1-yl)-2-fluoro-N-(7-(hydroxyamino)-7-oxoheptyl)benzamide] was tested, and the “chromatin association of AR (ChIP signal)” value [1] was “basal ChIP signal”, the pIC50 (human recombinant HDAC6) was 5.70 and the “AR protein level (degradation)” value (AR) was “more efficiently induced AR protein degradation”.

With `CC1(C)C(=O)N(c2ccc(C#N)c(C(F)(F)F)c2)C(=S)N1c1ccc(/C=C/C(=O)NO)c(F)c1` [Compound 1005, (E)-3-(4-(3-(4-cyano-3-(trifluoromethyl)phenyl)-5,5-dimethyl-4-oxo-2-thioxoimidazolidin-1-yl)-2-fluorophenyl)-N-hydroxyacrylamide] the pIC50 (human recombinant HDAC6) was 5.16 and the “AR protein level (degradation)” value (AR) was “more efficiently induced AR protein degradation”.
